{"source": "paper PMC3646166", "about": "“Comparison of Aqueous and 1-Octanol Solubility as well as Liquid–Liquid Distribution of Acyclovir Derivatives and Their Complexes with Hydroxypropyl-β-Cyclodextrin” (Journal of Solution Chemistry, 2013)", "key": {"[1]": {"experiment": "Solubility in buffered cyclodextrin solutions (excess method of Higuchi and Connors)", "assay_type": "physicochemical", "conditions": "phosphate buffer saturated with 1-octanol, aqueous buffer, thermodynamic from solid, pH = 7.0, 37 °C, read-out: Solubility, C 6-Ph-O-Me-TACV"}, "[2]": {"test_system": "HSV-1 and HSV-2 viruses", "set-up": "method as in PMID 7932543", "conditions": "towards HSV-1 and HSV-2 viruses ref 8; cited from earlier work"}, "[3]": {"experiment": "Solubility in water or 1-octanol (saturated solutions, UV-Vis)", "assay_type": "physicochemical", "conditions": "for solubility: thermodynamic from solid, water", "method": "The sample of substance examined (10 mg or 80 mg for 6-Me-TACV) was placed in a glass ampoule and double-distilled, deionized water (Millipore, Elix 5 purifier), or pure anhydrous 1-octanol (Sigma 99 %) was added. To attain thermodynamic equilibrium, the solute and the solvent were mixed continuously for a minimum of 4 days at a speed of 25 rpm. After the experiment was completed, the sample was centrifuged at 40,000 rpm for 40 min at 25 ± 0.1 °C, the supernatant liquid was collected, diluted, and its concentration determined with a UV–Vis (Varian Carry IE) spectrophotometer. The experiments were repeated at least three times for each solubility."}, "[4]": {"experiment": "Solubility in buffered cyclodextrin solutions (excess method of Higuchi and Connors)", "assay_type": "physicochemical", "set-up": "Stability constant K s of HP-β-CD complex: unit not given here", "conditions": "for Correlation parameter a (Eq. 2, Cs = a + b·CCD) / Correlation parameter b (Eq. 2, Cs = a + b·CCD): buffered HP-β-CD solutions; for solubility / solubility at 7 days: thermodynamic from solid, read-out: Solubility, C 6-Ph-O-Me-TACV", "method": "Solubilities of the studied compounds was ensured according to the excess method of Higuchi and Connors. […] An excess amount of compounds 4-9 and 11-12 was added to 1.5 mL of aqueous phosphate buffer (concentration of buffer was equal 0.067 mol·dm^-3) solutions, (pH = 5.5 or 7.0) containing various concentration of HP-β-CD. The cyclodextrin concentration changed in the range of 10^-3 to 2 × 10^-2 mol·dm^-3. The suspensions were shaken in screw-capped plastic vials in a water bath thermostat with the volume of 60 dm^3 (home made apparatus by IChF PAN) at 25 and 37 °C. After 7 days equilibrium was reached and then the suspensions were centrifuged and the absorbance of the studied compounds was measured by UV-Vis spectrophotometry using a Shimadzu UV 2401 PC Spectrometer equipped with a thermostatically controlled cell compartment. During the measurement of absorbance, a buffered-solution of HP-β-CD, of the same concentration as in the studied solution, was always put as the reference. The average values of at least three independent determinations of the absorbance were used for calculation of the concentrations of the particular acyclovir derivatives. […] The main reason for the low solubility of tricyclic acyclovir derivatives with aromatic groups in water is the high hydrophobicity of these substituents. Use of cyclodextrins, which can include aromatic groups into their cavity, may enhance the aqueous solubility of such compounds. For this purpose we used several cyclodextrins and hydroxypropyl-β-cyclodextrin was chosen as being more efficient for complexating the tricyclic acyclovir derivatives. The investigations were performed, for chosen compounds, in various cyclodextrin HP-β-CD, buffered solutions (pH = 5.5 and 7.0) at 25 and 37 °C. […] Values of the correlation parameters a and b for tricyclic acyclovir derivatives complexed by cyclodextrin are presented in Table 3. […] The stability constants of the inclusion complexes between HP-β-CD and acyclovir derivatives have been calculated according to the Higuchi-Connors method using:3 K=b/C0(1-b) where C 0 is the solubility of the sample in solutions without cyclodextrin, obtained by determination of saturated solution concentration of acyclovir derivative solutions. […] These two values can differ, but in our study are very close to each other."}, "[5]": {"experiment": "Extraction experiments, 1-octanol-water partition coefficient", "assay_type": "physicochemical", "conditions": "25 °C, read-out: Partition coefficient 1-octanol–water, P oc/w (converted)", "method": "The equipment described above was also used for the determination of the 1-octanol-water partition coefficients. […] The partition coefficient was evaluated as:1 Poc/w=Coc/Cw where C oc and C w are the molar concentrations of the solute in the 1-octanol and water phases, respectively. The correctness of the P oc/w value of each compound was verified by checking the mass balance of the starting amount of the substance and the total amount of the substance partitioned between the two phases."}}, "note": "Like-named read-outs stand apart in the source and are kept apart here."}
{"smiles": "COc1ccc(-c2cn3c(=O)c4ncn(COCCO)c4nc3[nH]2)cc1", "note": "[Compound 11]", "values": [{"measurement": "solubility at 7 days", "setting": "[1]", "value": 139, "unit": "µM"}, {"measurement": "Antiherpetic activity relative to parent acyclovir (concentrations required to reduce virus-induced cytopathicity by 50 %)", "setting": "[2]", "value": "2–7 times higher"}, {"measurement": "Solubility ratio in 1-octanol and water, C oc/C w", "setting": "[3]; 25 °C", "value": 7.62}, {"measurement": "Solubility ratio in 1-octanol saturated with water and water saturated with 1-octanol, C ocw/C woc", "setting": "[3]; 25 °C", "value": 2.84}, {"measurement": "solubility", "setting": "[3]; 25 °C (Table 1), read-out: Solubility in water, C w", "value": 53, "unit": "µM"}, {"measurement": "solubility", "setting": "[3]; water saturated with 1-octanol, 25 °C, read-out: Solubility in water saturated with 1-octanol, C woc", "value": 135, "unit": "µM"}, {"measurement": "solubility", "setting": "[3]; 35 °C, read-out: Aqueous solubility, C w", "value": 144, "unit": "µM"}, {"measurement": "solubility", "setting": "[3]; 45 °C, read-out: Aqueous solubility, C w", "value": 465, "unit": "µM"}, {"measurement": "Correlation parameter a (Eq. 2, Cs = a + b·CCD)", "setting": "[4]; pH = 5.5, 25 °C", "value": "5.23 × 10^−5"}, {"measurement": "Correlation parameter b (Eq. 2, Cs = a + b·CCD)", "setting": "[4]; pH = 5.5, 25 °C", "value": "1.00 × 10^−2"}, {"measurement": "Correlation parameter a (Eq. 2, Cs = a + b·CCD)", "setting": "[4]; pH = 5.5, 37 °C", "value": "9.95 × 10^−5"}, {"measurement": "Correlation parameter b (Eq. 2, Cs = a + b·CCD)", "setting": "[4]; pH = 5.5, 37 °C", "value": "1.41 × 10^−2"}, {"measurement": "Correlation parameter a (Eq. 2, Cs = a + b·CCD)", "setting": "[4]; pH = 7.0, 25 °C", "value": "5.68 × 10^−5"}, {"measurement": "Correlation parameter b (Eq. 2, Cs = a + b·CCD)", "setting": "[4]; pH = 7.0, 25 °C", "value": "1.06 × 10^−2"}, {"measurement": "Correlation parameter a (Eq. 2, Cs = a + b·CCD)", "setting": "[4]; pH = 7.0, 37 °C", "value": "1.37 × 10^−4"}, {"measurement": "Correlation parameter b (Eq. 2, Cs = a + b·CCD)", "setting": "[4]; pH = 7.0, 37 °C", "value": "1.30 × 10^−2"}, {"measurement": "solubility", "setting": "[4]; organic solvent or mixture, 1-Octanol saturated with buffer, pH = 5.5, 25 °C", "value": 473, "unit": "µM"}, {"measurement": "solubility", "setting": "[4]; organic solvent or mixture, 1-Octanol saturated with buffer, pH = 5.5, 37 °C", "value": 741, "unit": "µM"}, {"measurement": "solubility at 7 days", "setting": "[4]; organic solvent or mixture, 1-Octanol saturated with buffer, pH = 7.0, 25 °C", "value": 485, "unit": "µM"}, {"measurement": "solubility at 7 days", "setting": "[4]; organic solvent or mixture, 1-Octanol saturated with buffer, pH = 7.0, 37 °C", "value": 882, "unit": "µM"}, {"measurement": "Stability constant K s of HP-β-CD complex", "setting": "[4]; pH = 5.5, 25 °C", "value": "213 (±6) dm·mol^−1"}, {"measurement": "Stability constant K s of HP-β-CD complex", "setting": "[4]; pH = 5.5, 37 °C", "value": "144 (±5)"}, {"measurement": "Stability constant K s of HP-β-CD complex", "setting": "[4]; pH = 7, 25 °C", "value": "189 (±6) dm·mol^−1"}, {"measurement": "Stability constant K s of HP-β-CD complex", "setting": "[4]; pH = 7, 37 °C", "value": "96 (±4)"}, {"measurement": "solubility at 7 days", "setting": "[4]; phosphate buffer saturated with 1-octanol, aqueous buffer, Buffer saturated with 1-octanol, pH = 5.5, 25 °C", "value": 74.2, "unit": "µM"}, {"measurement": "solubility at 7 days", "setting": "[4]; phosphate buffer saturated with 1-octanol, aqueous buffer, Buffer saturated with 1-octanol, pH = 5.5, 37 °C", "value": 127, "unit": "µM"}, {"measurement": "solubility at 7 days", "setting": "[4]; phosphate buffer saturated with 1-octanol, aqueous buffer, Buffer saturated with 1-octanol, pH = 7.0, 25 °C", "value": 58.7, "unit": "µM"}, {"measurement": "solubility at 7 days", "setting": "[4]; phosphate buffer saturated with 1-octanol, aqueous with cosolvent or surfactant or cyclodextrin, Buffer saturated with 1-octanol + HP-β-CD (2 × 10^−2 mol·dm^−3), pH = 5.5, 25 °C", "value": 40.3, "unit": "µM"}, {"measurement": "solubility at 7 days", "setting": "[4]; phosphate buffer saturated with 1-octanol, aqueous with cosolvent or surfactant or cyclodextrin, Buffer saturated with 1-octanol + HP-β-CD (2 × 10^−2 mol·dm^−3), pH = 5.5, 37 °C", "value": 77, "unit": "µM"}, {"measurement": "solubility at 7 days", "setting": "[4]; phosphate buffer saturated with 1-octanol, aqueous with cosolvent or surfactant or cyclodextrin, Buffer saturated with 1-octanol + HP-β-CD (2 × 10^−2 mol·dm^−3), pH = 7.0, 25 °C", "value": 40.3, "unit": "µM"}, {"measurement": "solubility at 7 days", "setting": "[4]; phosphate buffer saturated with 1-octanol, aqueous with cosolvent or surfactant or cyclodextrin, Buffer saturated with 1-octanol + HP-β-CD (2 × 10^−2 mol·dm^−3), pH = 7.0, 37 °C", "value": 80.6, "unit": "µM"}, {"measurement": "solubility at 7 days", "setting": "[4]; phosphate buffer with HP-β-CD, aqueous with cosolvent or surfactant or cyclodextrin, Buffer + HP-β-CD (2 × 10^−2 mol·dm^−3), pH = 5.5, 25 °C", "value": 244, "unit": "µM"}, {"measurement": "solubility at 7 days", "setting": "[4]; phosphate buffer with HP-β-CD, aqueous with cosolvent or surfactant or cyclodextrin, Buffer + HP-β-CD (2 × 10^−2 mol·dm^−3), pH = 5.5, 37 °C", "value": 374, "unit": "µM"}, {"measurement": "solubility at 7 days", "setting": "[4]; phosphate buffer with HP-β-CD, aqueous with cosolvent or surfactant or cyclodextrin, Buffer + HP-β-CD (2 × 10^−2 mol·dm^−3), pH = 7.0, 25 °C", "value": 265, "unit": "µM"}, {"measurement": "solubility at 7 days", "setting": "[4]; phosphate buffer with HP-β-CD, aqueous with cosolvent or surfactant or cyclodextrin, Buffer + HP-β-CD (2 × 10^−2 mol·dm^−3), pH = 7.0, 37 °C", "value": 391, "unit": "µM"}, {"measurement": "solubility at 7 days", "setting": "[4]; phosphate buffer, aqueous buffer, Buffer, pH = 5.5, 25 °C", "value": 48.2, "unit": "µM"}, {"measurement": "solubility at 7 days", "setting": "[4]; phosphate buffer, aqueous buffer, Buffer, pH = 5.5, 37 °C", "value": 99.4, "unit": "µM"}, {"measurement": "solubility at 7 days", "setting": "[4]; phosphate buffer, aqueous buffer, Buffer, pH = 7.0, 25 °C", "value": 55, "unit": "µM"}, {"measurement": "solubility at 7 days", "setting": "[4]; phosphate buffer, aqueous buffer, Buffer, pH = 7.0, 37 °C", "value": 136, "unit": "µM"}, {"measurement": "logP at 2 days", "setting": "[5]", "value": 0.386}]}
